Earlier results, collected in patent publication US20170119663A1, “NOVEL GASTRO-RETENTIVE DOSAGE FORMS” (Grünenthal GmbH, priority 2010, published 2017).
Like-named read-outs stand apart in the source and are kept apart here.

SMILES	oral bioavailability (dose in the range of 300-400 mg)	oral bioavailability (dose of 1600 mg) [%]	absorption window (small intestine and ascending colon)
NCC1(CC(=O)O)CCCCC1 [gabapentin]	approximately 60%	35	–
CC(C)C[C@H](CN)CC(=O)O [pregabalin]	–	–	around six
